For one assay, the target named is T1, TrtA (Herbaspirillum sp. BH-1, UniProt A0A2N6JFX7).
T1 construct: N-terminal 6xHis tag and thrombin site kept, pET28a, E. coli BL21(DE3), codon-optimized; subunit 24 kDa, homodimer
T1 sequence (A0A2N6JFX7 1-227): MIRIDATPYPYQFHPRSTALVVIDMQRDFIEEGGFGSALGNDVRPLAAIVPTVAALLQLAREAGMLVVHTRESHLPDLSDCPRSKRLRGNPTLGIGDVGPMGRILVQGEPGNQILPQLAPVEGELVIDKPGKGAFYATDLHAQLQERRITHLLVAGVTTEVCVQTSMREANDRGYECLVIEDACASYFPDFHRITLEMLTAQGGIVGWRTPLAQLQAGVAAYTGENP
Kind of assay: inhibition of triuret hydrolysis. The format is biochemical. Conditions: likely competitive; Ki not determinable because biuret contains about 1 mol% triuret; inhibition only above 50 mM, where TrtA precipitates; tag state not stated.

The next assay deals with T2, RhdBiuH (Rhodococcus sp. Mel, UniProt H8ZKV9, C169S).
T2 construct: recombinant
Kind of assay: X-ray crystal structure. The format is binding. The note with it: cocrystal with biuret; active site; inactive mutant.

Assay [1] deals with T3, CtermDelΔ7+Cleaved His-tag (Herbaspirillum sp. BH-1, UniProt A0A2N6JFX7).
T3 construct: gene trtA
The assay can be described thus: ammonia release, Berthelot assay. It counts as biochemical. Conditions: phosphate buffer, pH 8, 25 °C. From the text:
ammonia release, Berthelot assay on CtermDelΔ7+Cleaved His-tag

T2 sequence (H8ZKV9 entry or part of it C169S): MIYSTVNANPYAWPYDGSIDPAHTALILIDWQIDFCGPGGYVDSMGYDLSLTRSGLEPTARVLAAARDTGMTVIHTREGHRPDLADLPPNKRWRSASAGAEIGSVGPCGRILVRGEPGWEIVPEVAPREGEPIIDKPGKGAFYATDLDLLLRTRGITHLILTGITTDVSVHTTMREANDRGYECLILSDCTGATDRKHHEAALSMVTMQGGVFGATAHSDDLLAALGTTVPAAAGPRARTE

For `NC(=O)NC(N)=O` [biuret], at TrtA, the “inhibition of triuret hydrolysis” value is “Inhibition data suggests that biuret is a competitive inhibitor”. In addition, the X-ray crystal structure result on RhdBiuH is recorded as “The cocrystal with biuret showed similar mode of binding to that of BiuH”. On to `NC(=O)NC(=O)NC(N)=O` [triuret], for which the Km in assay [1] is 16 ± 2 µM.

The record behind these values is PMC7948467, “Discovery of an ultraspecific triuret hydrolase (TrtA) establishes the triuret biodegradation pathway” (The Journal of Biological Chemistry, 2020).
